Data reported in ChEMBL document CHEMBL3885861, “Open TG-GATES”.

Organism: Rattus norvegicus
Assay: Open TG-GATES - Regimen: Daily Repeat
Format: toxicity, organism-based, Sprague-Dawley
Set-up: regimen Daily Repeat, gender Male, age 6 weeks
Details: in vivo, po, route gavage; for Bas / Eos / Hb / Ht / Lym / MCH / MCHC / MCV / Mono / Neu / Plat / RBC / Ret / WBC: tissue Blood; for KIDNEY_L / KIDNEY_R / KIDNEY_TOTAL: tissue Kidney; for LIVER: tissue Liver; for A/G / ALP / ALT / AST / BUN / CRE / Ca / Cl / DBIL / GLC / IP / K / LDH / Na / PL / RALB / TBIL / TC / TG / TP / gamma-GTP: tissue Plasma
[1] = 0 mg/kg, 72 h, dose level Control, time 3 day
[2] = 0 mg/kg, […], dose level Control, time 7 day
[3] = 0 mg/kg, […], dose level Control, time 14 day
[4] = 0 mg/kg, […], dose level Control, time 28 day
[5] = 300 mg/kg, 72 h, dose level Low, time 3 day
[6] = 300 mg/kg, […], dose level Low, time 7 day
[7] = 300 mg/kg, […], dose level Low, time 14 day
[8] = 300 mg/kg, […], dose level Low, time 28 day

CC(N)=O [ACETAMIDE]
TERMINAL_BW [1]: 236.7 g
Bas [1]: 0%
Eos [1]: 1%
Hb [1]: 13.1 g/dL
Ht [1]: 40.5%
Lym [1]: 71.4%
MCH [1]: 20 pg
MCHC [1]: 32.4%
MCV [1]: 61.6 fL
Mono [1]: 3.6%
Neu [1]: 23%
Plat [1]: 126.3 x10_4/uL
RBC [1]: 658.2 x10_4/ul
Ret [1]: 7.1%
WBC [1]: 126.7 x10_2/uL
KIDNEY_L [1]: 1 g
KIDNEY_R [1]: 1 g
KIDNEY_TOTAL [1]: 2 g
LIVER [1]: 11.1 g
A/G [1]: 1
ALP [1]: 1741.8 IU/L
ALT [1]: 39.8 IU/L
AST [1]: 71.6 IU/L
BUN [1]: 15.2 mg/dL
CRE [1]: 0.1 mg/dL
Ca [1]: 10.7 mg/dL
Cl [1]: 105.6 meq/L
DBIL [1]: 0.004 mg/dL
GLC [1]: 196 mg/dL
IP [1]: 6.7 mg/dL
K [1]: 4.4 meq/L
LDH [1]: 180.4 IU/L
Na [1]: 140.9 meq/L
PL [1]: 162.6 mg/dL
RALB [1]: 2.8 g/dL
TBIL [1]: 0.002 mg/dL
TC [1]: 85.2 mg/dL
TG [1]: 108.8 mg/dL
TP [1]: 5.6 g/dL
gamma-GTP [1]: 0.8 IU/L
TERMINAL_BW [2]: 276.9 g
TERMINAL_BW [3]: 335.4 g
TERMINAL_BW [4]: 415.6 g
Bas [2]: 0%
Eos [2]: 1%
Hb [2]: 12.7 g/dL
Ht [2]: 38.9%
Lym [2]: 75.2%
MCH [2]: 19.9 pg
MCHC [2]: 32.7%
MCV [2]: 60.8 fL
Mono [2]: 3.2%
Neu [2]: 19.8%
Plat [2]: 131.8 x10_4/uL
RBC [2]: 640.2 x10_4/ul
Ret [2]: 6.7%
WBC [2]: 130.3 x10_2/uL
Bas [3]: 0%
Eos [3]: 1%
Hb [3]: 13.4 g/dL
Ht [3]: 40.3%
Lym [3]: 79.8%
MCH [3]: 19.6 pg
MCHC [3]: 33.2%
MCV [3]: 58.9 fL
Mono [3]: 3%
Neu [3]: 15.2%
Plat [3]: 119.7 x10_4/uL
RBC [3]: 685.6 x10_4/ul
Ret [3]: 5.2%
WBC [3]: 124.3 x10_2/uL
Bas [4]: 0%
Eos [4]: 1%
Hb [4]: 13.5 g/dL
Ht [4]: 41.1%
Lym [4]: 82.2%
MCH [4]: 18.5 pg
MCHC [4]: 32.8%
MCV [4]: 56.3 fL
Mono [4]: 2.2%
Neu [4]: 14.2%
Plat [4]: 99.3 x10_4/uL
RBC [4]: 729.2 x10_4/ul
Ret [4]: 4.1%
WBC [4]: 118.1 x10_2/uL
KIDNEY_L [2]: 1.1 g
KIDNEY_R [2]: 1.2 g
KIDNEY_TOTAL [2]: 2.3 g
KIDNEY_L [3]: 1.3 g
KIDNEY_R [3]: 1.3 g
KIDNEY_TOTAL [3]: 2.6 g
KIDNEY_L [4]: 1.4 g
KIDNEY_R [4]: 1.4 g
KIDNEY_TOTAL [4]: 2.8 g
LIVER [2]: 12.8 g
LIVER [3]: 14.7 g
LIVER [4]: 16 g
A/G [2]: 0.9
ALP [2]: 1570 IU/L
ALT [2]: 38.2 IU/L
AST [2]: 64.2 IU/L
BUN [2]: 16.1 mg/dL
CRE [2]: 0.2 mg/dL
Ca [2]: 10.5 mg/dL
Cl [2]: 103.4 meq/L
DBIL [2]: 0 mg/dL
GLC [2]: 195.2 mg/dL
IP [2]: 6.6 mg/dL
K [2]: 4.7 meq/L
LDH [2]: 164.6 IU/L
Na [2]: 140.6 meq/L
PL [2]: 148.6 mg/dL
RALB [2]: 2.8 g/dL
TBIL [2]: 0 mg/dL
TC [2]: 72.6 mg/dL
TG [2]: 135.5 mg/dL
TP [2]: 5.7 g/dL
gamma-GTP [2]: 0.7 IU/L
A/G [3]: 0.9
ALP [3]: 1394.4 IU/L
ALT [3]: 33.2 IU/L
AST [3]: 64.6 IU/L
BUN [3]: 17.9 mg/dL
CRE [3]: 0.2 mg/dL
Ca [3]: 10.4 mg/dL
Cl [3]: 103.5 meq/L
DBIL [3]: 0 mg/dL
GLC [3]: 196.6 mg/dL
IP [3]: 6.6 mg/dL
K [3]: 4.2 meq/L
LDH [3]: 170.6 IU/L
Na [3]: 141.6 meq/L
PL [3]: 156 mg/dL
RALB [3]: 2.7 g/dL
TBIL [3]: 0 mg/dL
TC [3]: 72 mg/dL
TG [3]: 191.9 mg/dL
TP [3]: 5.8 g/dL
gamma-GTP [3]: 0.8 IU/L
A/G [4]: 0.8
ALP [4]: 983.4 IU/L
ALT [4]: 34.2 IU/L
AST [4]: 64.6 IU/L
BUN [4]: 16.3 mg/dL
CRE [4]: 0.2 mg/dL
Ca [4]: 10.3 mg/dL
Cl [4]: 103.9 meq/L
DBIL [4]: 0.004 mg/dL
GLC [4]: 204.8 mg/dL
IP [4]: 6.3 mg/dL
K [4]: 4.1 meq/L
LDH [4]: 179.6 IU/L
Na [4]: 142.3 meq/L
PL [4]: 133.2 mg/dL
RALB [4]: 2.7 g/dL
TBIL [4]: 0.002 mg/dL
TC [4]: 60.2 mg/dL
TG [4]: 133.7 mg/dL
TP [4]: 6 g/dL
gamma-GTP [4]: 0.9 IU/L
TERMINAL_BW [5]: 239.9 g
Bas [5]: 0%
Eos [5]: 0.8%
Hb [5]: 12.4 g/dL
Ht [5]: 38.3%
Lym [5]: 75.8%
MCH [5]: 20.5 pg
MCHC [5]: 32.5%
MCV [5]: 63 fL
Mono [5]: 3.4%
Neu [5]: 19.4%
Plat [5]: 135.2 x10_4/uL
RBC [5]: 608.2 x10_4/ul
Ret [5]: 8.2%
WBC [5]: 104.5 x10_2/uL
KIDNEY_L [5]: 1 g
KIDNEY_R [5]: 1 g
KIDNEY_TOTAL [5]: 2.1 g
LIVER [5]: 11.3 g
A/G [5]: 1
ALP [5]: 2008.8 IU/L
ALT [5]: 36.4 IU/L
AST [5]: 65.4 IU/L
BUN [5]: 17.6 mg/dL
CRE [5]: 0.1 mg/dL
Ca [5]: 10.8 mg/dL
Cl [5]: 103.4 meq/L
DBIL [5]: 0.002 mg/dL
GLC [5]: 184.6 mg/dL
IP [5]: 6.6 mg/dL
K [5]: 4.5 meq/L
LDH [5]: 138.4 IU/L
Na [5]: 139.5 meq/L
PL [5]: 157.2 mg/dL
RALB [5]: 2.8 g/dL
TBIL [5]: 0.006 mg/dL
TC [5]: 80.4 mg/dL
TG [5]: 137.5 mg/dL
TP [5]: 5.5 g/dL
gamma-GTP [5]: 0.8 IU/L
TERMINAL_BW [6]: 271.7 g
TERMINAL_BW [7]: 327.7 g
TERMINAL_BW [8]: 432.9 g
Bas [6]: 0%
Eos [6]: 0.8%
Hb [6]: 12.5 g/dL
Ht [6]: 38.3%
Lym [6]: 76.4%
MCH [6]: 19.8 pg
MCHC [6]: 32.7%
MCV [6]: 60.6 fL
Mono [6]: 3.4%
Neu [6]: 18.4%
Plat [6]: 115.7 x10_4/uL
RBC [6]: 631.6 x10_4/ul
Ret [6]: 6.4%
WBC [6]: 120.4 x10_2/uL
Bas [7]: 0%
Eos [7]: 1%
Hb [7]: 13.2 g/dL
Ht [7]: 39.9%
Lym [7]: 76.8%
MCH [7]: 19.6 pg
MCHC [7]: 33.2%
MCV [7]: 59.2 fL
Mono [7]: 2.8%
Neu [7]: 19%
Plat [7]: 105.9 x10_4/uL
RBC [7]: 674.2 x10_4/ul
Ret [7]: 4.8%
WBC [7]: 126.4 x10_2/uL
Bas [8]: 0%
Eos [8]: 1%
Hb [8]: 14.1 g/dL
Ht [8]: 42.1%
Lym [8]: 77.8%
MCH [8]: 19.1 pg
MCHC [8]: 33.5%
MCV [8]: 57.1 fL
Mono [8]: 2.4%
Neu [8]: 17.8%
Plat [8]: 111 x10_4/uL
RBC [8]: 737.8 x10_4/ul
Ret [8]: 3.2%
WBC [8]: 165 x10_2/uL
KIDNEY_L [6]: 1.1 g
KIDNEY_R [6]: 1.1 g
KIDNEY_TOTAL [6]: 2.2 g
KIDNEY_L [7]: 1.3 g
KIDNEY_R [7]: 1.3 g
KIDNEY_TOTAL [7]: 2.6 g
KIDNEY_L [8]: 1.5 g
KIDNEY_R [8]: 1.5 g
KIDNEY_TOTAL [8]: 3 g
LIVER [6]: 12.8 g
LIVER [7]: 14.1 g
LIVER [8]: 17.3 g
A/G [6]: 0.9
ALP [6]: 1504 IU/L
ALT [6]: 39.4 IU/L
AST [6]: 73.4 IU/L
BUN [6]: 19.4 mg/dL
CRE [6]: 0.2 mg/dL
Ca [6]: 10.5 mg/dL
Cl [6]: 104.1 meq/L
DBIL [6]: 0 mg/dL
GLC [6]: 187.4 mg/dL
IP [6]: 6.3 mg/dL
K [6]: 4.7 meq/L
LDH [6]: 205.8 IU/L
Na [6]: 141.3 meq/L
PL [6]: 149.6 mg/dL
RALB [6]: 2.8 g/dL
TBIL [6]: 0 mg/dL
TC [6]: 72 mg/dL
TG [6]: 141.8 mg/dL
TP [6]: 5.8 g/dL
gamma-GTP [6]: 0.5 IU/L
A/G [7]: 0.9
ALP [7]: 1341.2 IU/L
ALT [7]: 34.4 IU/L
AST [7]: 68.6 IU/L
BUN [7]: 17.7 mg/dL
CRE [7]: 0.2 mg/dL
Ca [7]: 10.4 mg/dL
Cl [7]: 104.9 meq/L
DBIL [7]: 0 mg/dL
GLC [7]: 197.4 mg/dL
IP [7]: 6.3 mg/dL
K [7]: 4.4 meq/L
LDH [7]: 244 IU/L
Na [7]: 141.1 meq/L
PL [7]: 147.4 mg/dL
RALB [7]: 2.8 g/dL
TBIL [7]: 0.002 mg/dL
TC [7]: 71.2 mg/dL
TG [7]: 132 mg/dL
TP [7]: 5.8 g/dL
gamma-GTP [7]: 0.7 IU/L
A/G [8]: 0.9
ALP [8]: 1160.4 IU/L
ALT [8]: 41.2 IU/L
AST [8]: 75.8 IU/L
BUN [8]: 20.1 mg/dL
CRE [8]: 0.2 mg/dL
Ca [8]: 10.5 mg/dL
Cl [8]: 104.1 meq/L
DBIL [8]: 0.004 mg/dL
GLC [8]: 211.2 mg/dL
IP [8]: 6.3 mg/dL
K [8]: 4.3 meq/L
LDH [8]: 256 IU/L
Na [8]: 141.8 meq/L
PL [8]: 158.6 mg/dL
RALB [8]: 2.8 g/dL
TBIL [8]: 0 mg/dL
TC [8]: 77 mg/dL
TG [8]: 175.1 mg/dL
TP [8]: 6 g/dL
gamma-GTP [8]: 0.9 IU/L
